Patent publication US8710252B2, “Hepodxilin analog enantiomers” (priority 2006, dated 2014)
“Also recorded” adds a separate entry of the source.

Target: T1, Ga14-DBD-PPAR gamma-LBD fusion protein (Homo sapiens, UniProt P37231)
T1 construct: expressed in transfected cells; host or cells: mouse embryonic fibroblasts (MEFs) or ME3 cells
T1 sequence (P37231 238-503 limits assumed): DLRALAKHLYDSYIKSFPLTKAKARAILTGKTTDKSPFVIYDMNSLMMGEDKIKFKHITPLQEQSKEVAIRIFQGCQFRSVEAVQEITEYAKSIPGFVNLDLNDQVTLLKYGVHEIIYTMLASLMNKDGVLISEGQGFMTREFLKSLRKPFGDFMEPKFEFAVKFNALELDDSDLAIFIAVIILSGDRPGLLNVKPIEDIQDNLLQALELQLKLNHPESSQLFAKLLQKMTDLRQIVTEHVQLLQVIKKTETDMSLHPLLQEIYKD
Experiment: PPAR gamma transactivation assay (Gal4-PPAR gamma LBD / UASx4-TK-luc reporter)
Format: cell-based
From the text: The UASx4-TK-luc reporter construct (where UAS refers to “upstream activator sequence”) contains four Ga14-responsive elements. The plasmid Ga14-PPAR gammaLBD encodes a Ga14-DBD-PPAR gamma-LBD fusion protein (i.e. the DNA-binding domain, DBD, of Ga14 fused to the ligand-binding domain, LBD, of PPAR gamma) capable of transactivating the UASx4-TK-luc reporter plasmid by binding to the UAS. The CMV-beta-galactosidase plasmid (where CMV is cytomegalovirus) was used for normalization of experimental values.
The cells were replated, typically in 24 well plates, so that at the time of transfection the cells were 50-70% confluent.
Briefly, per well in a 24 well plate, UASx4TKIuc (0.2 microg) Ga14-PPAR gammaLBD (or pM-hPPAR gamma-LBD; 0.1 microg) and CMV-beta-galactosidase (0.05 microg) in 30 μL DMEM (free of serum and antibiotics) was mixed with 30 microL DMEM (free of serum and antibiotics) containing 1 microL metafectenein. The mixture was incubated at room temperature for 20 min to allow formation of nucleic acid-lipid complexes and then approximately 60 micros was added to each well containing the 50-70% confluent cells. […] Cells were harvested after 12-24 hours and luciferase and beta-galactosidase activities were measured according to standard protocols.
Each experiment was carried out with triplicate samples with 0.1, 1 or 10 microM racemate or purified enantiomer.

Q: With CCCCC/C=C\CC1CC1/C=C/C(O)C/C=C\CCCC(=O)O (stereo not shown) [PBT-02, 8-hydroxy-11,12-cyclopropyl-eicosa-5Z,9E,14Z-trienoic acid, reference compound] as the compound, how does the “PPAR gamma transactivation, result in words” value (shortened to “PPAR gamma transactivation”) read?
A: The value was “active”.

Q: What about the “PPAR Activation as % of positive control (Avandia)” value (from here on “PPAR Activation as %”) (10 microM racemate, Table 3) of the same compound?
A: Its value is 17 +/− 2 % of positive control (Avandia).

Q: How did the “PPAR Activation as %” value (10 microM racemate, Table 3) turn out when CCCCC/C=C\CC1CC1/C=C/C(O)C/C=C\CCCC(=O)OC (stereo not shown) [PBT-1, 8-hydroxy-11,12-cyclopropyl-eicosa-5Z,9E,14Z-trienoic acid methyl ester, reference compound] was run?
A: The value was 21 +/− 2 % of positive control (Avandia).

Q: What about the “PPAR Activation as %” value (Experiment 1, 0.1 microM) of the same compound?
A: Its value is 17 +/− 2 % of positive control (Avandia).

Q: And the “PPAR Activation as %” value (Experiment 1, 1 microM)?
A: Its value is 57 +/− 6 % of positive control (Avandia).

Q: And the “PPAR Activation as %” value (Experiment 2, 0.1 microM)?
A: The value was 7 +/− 1 % of positive control (Avandia).

Q: What about the “PPAR Activation as %” value (Experiment 2, 1 microM) of the same compound?
A: Its value is 35 +/− 5 % of positive control (Avandia).

Q: And the “PPAR Activation as %” value (Experiment 3, 0.1 microM)?
A: The value was 6 +/− 2 % of positive control (Avandia).

Q: What about the “PPAR Activation as %” value (Experiment 3, 1 microM) of the same compound?
A: The value was 34 +/− 2 % of positive control (Avandia).

Q: And the “PPAR Activation as %” value (Experiment 3, 10 microM)?
A: The value was 58 +/− 12 % of positive control (Avandia).

Q: For CCCCC/C=C\CC1CC1C(O)/C=C\C/C=C\CCCC(=O)O (stereo not shown) [PBT-03, 10-hydroxy-11,12-cyclopropyl-eicosa-5Z,8Z,14Z-trienoic acid, reference compound], which “PPAR gamma transactivation” value is on record?
A: The value was “active”.

Q: And the “PPAR Activation as %” value (10 microM racemate, Table 3)?
A: The value was 14 +/− 4 % of positive control (Avandia).

Q: How did the “PPAR Activation as %” value (10 microM racemate, Table 3) turn out when CCCCC/C=C\CC1CC1/C=C/C(O)C/C=C\CCCC(=O)OC (stereo not shown) [PBT-2, 8-hydroxy-11,12-cyclopropyl-eicosa-5Z,9E,14Z-trienoic acid methyl ester, reference compound] was run?
A: The value was 27 +/− 5 % of positive control (Avandia).

Q: Which “PPAR Activation as %” value (Experiment 1, 0.1 microM) does the source give for CCCCC/C=C\CC1CC1/C=C/C(O)C/C=C\CCCC(=O)OC (stereo not drawn) [Compound E, 8R-hydroxy-11S,12S-cyclopropyl-eicosa-5Z,9E,14Z-trienoic acid methyl ester] here?
A: Its value is 5 +/− 1 % of positive control (Avandia).

Q: And the “PPAR Activation as %” value (Experiment 1, 1 microM)?
A: The value was 11 +/− 1 % of positive control (Avandia).

Q: What about the “PPAR Activation as %” value (Experiment 1, 10 microM) of the same compound?
A: The value was 55 +/− 8 % of positive control (Avandia).

Q: And the “PPAR Activation as %” value (Experiment 2, 0.1 microM)?
A: Its value is 4 +/− 1 % of positive control (Avandia).

Q: What about the “PPAR Activation as %” value (Experiment 2, 1 microM) of the same compound?
A: Its value is 4 +/− 1 % of positive control (Avandia).

Q: And the “PPAR Activation as %” value (Experiment 2, 10 microM)?
A: Its value is 14 +/− 2 % of positive control (Avandia).

Q: And the “PPAR Activation as %” value (Experiment 3, 0.1 microM)?
A: The value was 7 +/− 3 % of positive control (Avandia).

Q: What about the “PPAR Activation as %” value (Experiment 3, 1 microM) of the same compound?
A: Its value is 11 +/− 2 % of positive control (Avandia).

Q: What about the “PPAR Activation as %” value (Experiment 3, 10 microM) of the same compound?
A: Its value is 27 +/− 7 % of positive control (Avandia).

Q: Which “PPAR gamma transactivation” value does the source give for CCCCC/C=C\C[C@@H]1C[C@H]1/C=C/[C@@H](O)C/C=C\CCCC(=O)OC [Compound F, 8S-hydroxy-11R,12R-cyclopropyl-eicosa-5Z,9E,14Z-trienoic acid methyl ester] here?
A: The value was “significantly more activity than Compound E or the racemic mixture of PBT-1; also recorded: significantly better PPAR gamma transactivation activity; also recorded: higher fold PPAR gamma transactivation than compound E or the PBT-1 racemic mixture”.

Q: And the “PPAR Activation as %” value (Experiment 1, 0.1 microM)?
A: The value was 7 +/− 1 % of positive control (Avandia).

Q: What about the “PPAR Activation as %” value (Experiment 1, 1 microM) of the same compound?
A: Its value is 12 +/− 7 % of positive control (Avandia).

Q: What about the “PPAR Activation as %” value (Experiment 1, 10 microM) of the same compound?
A: The value was 92 +/− 7 % of positive control (Avandia).

Q: What about the “PPAR Activation as %” value (Experiment 2, 0.1 microM) of the same compound?
A: The value was 5 +/− 1 % of positive control (Avandia).

Q: And the “PPAR Activation as %” value (Experiment 2, 1 microM)?
A: Its value is 5 +/− 5 % of positive control (Avandia).

Q: And the “PPAR Activation as %” value (Experiment 2, 10 microM)?
A: The value was 69 +/− 12 % of positive control (Avandia).

Q: And the “PPAR Activation as %” value (Experiment 3, 0.1 microM)?
A: The value was 8 +/− 2 % of positive control (Avandia).

Q: And the “PPAR Activation as %” value (Experiment 3, 1 microM)?
A: Its value is 18 +/− 5 % of positive control (Avandia).

Q: And the “PPAR Activation as %” value (Experiment 3, 10 microM)?
A: Its value is 78 +/− 34 % of positive control (Avandia).

Q: What does the source list for CCCCC/C=C\CC1CC1/C=C/C(O)C/C=C\CCCC(=O)O (stereo not shown) [PBT-01, 8-hydroxy-11,12-cyclopropyl-eicosa-5Z,9E,14Z-trienoic acid, reference compound]?
A: PPAR gamma transactivation, result in words: active; PPAR Activation as % of positive control (Avandia) (10 microM racemate, Table 3): 16 +/− 4 % of positive control (Avandia)
